The source made the active and inactive calls. No cut-off for these calls is given here. Where a SMILES comes first, the peptide text is derived from it. Bridges are numbered along the chain shown (N, C = ends).
Experiments:
[1] = target: Angiotensin-converting enzyme 2 (Homo sapiens, UniProt Q9BYF1); assay: Binding affinity to ACE2 (unknown origin) by MST analysis
Neuropilin-1 = Neuropilin-1 (Homo sapiens, UniProt O14786); assay: Binding affinity to NRP1 (unknown origin) by MST analysis
SARS-CoV-2 [2] = assay: Antiviral activity against HIV-1 pseudotyped SARS-CoV-2 Omicron BA.2.75 infected in HEK293T cells expressing ACE2/NRP1 assessed as reduction in viral replication at 1.6 uM pretreated with cells for 1 hr followed by viral infection and measured after 2 days by firefly luciferase reporter gene assay; format: functional, organism-based; details: Severe acute respiratory syndrome coronavirus 2, time 49.0 hrs
SARS-CoV-2 [3] = assay: microbe, parasite or virus in culture; details: Severe acute respiratory syndrome coronavirus 2, Omicron BA.2.75, HEK-293T
Description: Antiviral activity against HIV-1 pseudotyped SARS-CoV-2 Omicron BA.2.75 infected in HEK293T cells expressing ACE2/NRP1 assessed as reduction in infection rate pretreated with cells for 1 hr followed by viral infection and measured after 2 days by firefly luciferase reporter gene assay

SARS-CoV-2 [4] = assay: microbe, parasite or virus in culture; details: Severe acute respiratory syndrome coronavirus 2, Beta, HEK-293T
Description: Antiviral activity against HIV-1 pseudotyped SARS-CoV-2 Beta infected in HEK293T cells expressing ACE2/NRP1 assessed as reduction in infection rate pretreated with cells for 1 hr followed by viral infection and measured after 2 days by firefly luciferase reporter gene assay

SARS-CoV-2 [5] = assay: microbe, parasite or virus in culture; details: Severe acute respiratory syndrome coronavirus 2, Delta, HEK-293T
Description: Antiviral activity against HIV-1 pseudotyped SARS-CoV-2 Delta infected in HEK293T cells expressing ACE2/NRP1 assessed as reduction in infection rate pretreated with cells for 1 hr followed by viral infection and measured after 2 days by firefly luciferase reporter gene assay

SARS-CoV-2 [6] = assay: microbe, parasite or virus in culture; details: Severe acute respiratory syndrome coronavirus 2, Omicron BA.2.75, HEK-293T, 49 h, read-out: INH
SARS-CoV-2 [7] = assay: microbe, parasite or virus in culture; details: Severe acute respiratory syndrome coronavirus 2, Alpha, HEK-293T
Description: Antiviral activity against HIV-1 pseudotyped SARS-CoV-2 Alpha infected in HEK293T cells expressing ACE2/NRP1 assessed as reduction in infection rate pretreated with cells for 1 hr followed by viral infection and measured after 2 days by firefly luciferase reporter gene assay

Chain of Neuropilin-1 (O14786 whole entry): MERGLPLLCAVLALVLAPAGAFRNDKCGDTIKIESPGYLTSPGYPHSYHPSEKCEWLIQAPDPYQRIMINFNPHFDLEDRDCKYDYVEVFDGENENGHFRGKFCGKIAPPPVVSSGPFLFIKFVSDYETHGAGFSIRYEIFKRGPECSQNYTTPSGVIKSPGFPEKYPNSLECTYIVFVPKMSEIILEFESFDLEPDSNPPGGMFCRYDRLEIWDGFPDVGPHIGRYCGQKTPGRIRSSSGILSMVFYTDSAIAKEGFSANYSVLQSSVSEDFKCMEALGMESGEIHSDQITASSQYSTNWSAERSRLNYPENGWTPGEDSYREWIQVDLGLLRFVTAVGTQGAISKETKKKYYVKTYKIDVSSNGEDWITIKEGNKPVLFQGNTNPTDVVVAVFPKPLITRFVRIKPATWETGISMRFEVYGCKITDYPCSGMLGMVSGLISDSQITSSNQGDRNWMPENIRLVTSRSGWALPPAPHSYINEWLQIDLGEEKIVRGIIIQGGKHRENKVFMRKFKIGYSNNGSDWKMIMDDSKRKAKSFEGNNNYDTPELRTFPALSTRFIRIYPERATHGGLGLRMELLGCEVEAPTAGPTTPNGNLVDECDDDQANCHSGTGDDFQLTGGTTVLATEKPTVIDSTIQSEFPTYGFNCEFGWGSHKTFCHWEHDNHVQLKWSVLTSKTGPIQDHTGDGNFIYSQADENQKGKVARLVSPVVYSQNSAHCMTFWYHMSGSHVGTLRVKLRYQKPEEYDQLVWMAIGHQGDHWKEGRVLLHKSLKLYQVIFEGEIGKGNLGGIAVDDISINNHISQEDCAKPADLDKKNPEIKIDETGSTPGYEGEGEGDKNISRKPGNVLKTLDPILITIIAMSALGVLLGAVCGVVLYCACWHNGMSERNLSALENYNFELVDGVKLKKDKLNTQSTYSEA
Chain of Angiotensin-converting enzyme 2 (Q9BYF1 whole entry): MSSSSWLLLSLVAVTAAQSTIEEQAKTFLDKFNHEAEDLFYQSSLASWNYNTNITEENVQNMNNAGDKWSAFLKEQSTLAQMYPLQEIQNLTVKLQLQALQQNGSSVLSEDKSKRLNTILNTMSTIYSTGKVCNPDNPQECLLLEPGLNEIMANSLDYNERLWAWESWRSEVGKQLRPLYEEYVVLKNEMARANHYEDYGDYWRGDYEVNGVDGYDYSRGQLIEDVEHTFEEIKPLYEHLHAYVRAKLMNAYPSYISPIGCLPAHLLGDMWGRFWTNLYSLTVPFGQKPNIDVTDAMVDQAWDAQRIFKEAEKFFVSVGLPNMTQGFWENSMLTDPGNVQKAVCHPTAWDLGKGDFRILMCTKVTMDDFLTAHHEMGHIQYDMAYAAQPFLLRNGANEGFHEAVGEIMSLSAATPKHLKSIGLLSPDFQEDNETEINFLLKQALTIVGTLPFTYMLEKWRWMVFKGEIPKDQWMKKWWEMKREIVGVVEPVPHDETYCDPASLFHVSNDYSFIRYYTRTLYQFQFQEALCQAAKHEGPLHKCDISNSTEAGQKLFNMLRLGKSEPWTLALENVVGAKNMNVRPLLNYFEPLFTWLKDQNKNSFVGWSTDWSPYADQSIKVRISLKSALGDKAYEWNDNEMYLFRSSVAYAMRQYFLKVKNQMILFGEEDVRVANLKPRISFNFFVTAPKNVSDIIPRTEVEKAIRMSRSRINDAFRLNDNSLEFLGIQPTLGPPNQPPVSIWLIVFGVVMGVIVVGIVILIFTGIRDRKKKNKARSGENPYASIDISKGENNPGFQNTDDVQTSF

Row | Compound | Kd [1] | Kd (Neuropilin-1) | Activity (SARS-CoV-2 [2]) | EC50 (SARS-CoV-2 [3]) | EC50 (SARS-CoV-2 [4]) | EC50 (SARS-CoV-2 [5]) | inhibition at 1.6 µM (SARS-CoV-2 [6]) | EC50 (SARS-CoV-2 [7])
1 | CSCC[C@@H](NC(=O)CNC(=O)CNC(=O)[C@@H](Cc1ccc(O)cc1)NC(=O)[C@@H](Cc1c[nH]c2ccccc12)NC(=O)CNC(=O)[C@@H](Cc1ccc(O)cc1)NC(=O)[C@@H](Cc1ccccc1)NC(=O)[C@@H](Cc1ccccc1)NC(=O)Cc1ccc2ccccc2c1)C(=O)N[C@H](CCC(=O)O)C(=O)N[C@H](CCCCN)C(=O)N[C@H](CC(C)C)C(=O)N[C@H](CC(C)C)C(=O)N[C@H](CCCNC(=N)N)C(=O)NCC(=O)NCC(=O)N[C@H](CCCNC(=N)N)C(=O)NCC(=O)N[C@H](CCC(=O)O)C(=O)N[C@H](CCCNC(=N)N)C(=O)N1CCC[C@@H]1C(=O)N1CCC[C@@H]1C(=O)N[C@H](CCCNC(=N)N)C(=O)O | Not Active | 106 nM | – | – | – | – | – | –
2 | CC(C)C[C@H](NC(=O)[C@H](CC(=O)O)NC(=O)CN)C(=O)N[C@@H](Cc1cnc[nH]1)C(=O)N[C@@H](C)C(=O)N[C@H]1CSSC[C@@H](C(=O)N[C@H](C(=O)N[C@@H](CC(C)C)C(=O)NCC(=O)N[C@@H](CC(=O)O)C(=O)N2CCC[C@H]2C(=O)N[C@@H](CCC(=O)O)C(=O)NCC(=O)NCC(=O)NCC(=O)N[C@@H](CCCNC(=N)N)C(=O)N[C@@H](CO)C(=O)N2CCC[C@H]2C(=O)N[C@@H](CCCNC(=N)N)C(=O)N[C@@H](CCCNC(=N)N)C(=O)N[C@@H](C)C(=O)N[C@@H](CCCNC(=N)N)C(=O)O)[C@@H](C)O)NC(=O)[C@H](C)NC(=O)[C@H](Cc2c[nH]c3ccccc23)NC(=O)[C@H](Cc2c[nH]c3ccccc23)NC(=O)[C@@H]2CCCN2C(=O)[C@H](CC(=O)O)NC(=O)CNC(=O)[C@H](CCCNC(=N)N)NC(=O)[C@H](C(C)C)NC(=O)[C@@H]2CCCN2C(=O)[C@H](CCCNC(=N)N)NC1=O (H-GDLHACRPVRGDPWWACTLGDPEGGGRSPRRAR-OH; disulfide 6-17) | – | 17.6 nM | Active | – | – | – | – | –
3 | CC[C@H](C)[C@@H]1NC(=O)[C@@H]2CCCN2C(=O)[C@H](CO)NC(=O)[C@@H](NC(=O)[C@@H](NC(=O)[C@H](Cc2ccc(O)cc2)NC(=O)[C@H](CCCNC(=N)N)NC(=O)[C@H](CC(=O)O)NC(=O)CN)[C@@H](C)O)CSSC[C@@H](C(=O)N[C@@H](CC(=O)O)C(=O)N[C@@H](CC(C)C)C(=O)NCC(=O)N[C@@H](CC(=O)O)C(=O)N2CCC[C@H]2C(=O)N[C@@H](CCC(=O)O)C(=O)NCC(=O)NCC(=O)NCC(=O)N[C@@H](CCCCN)C(=O)N[C@@H](C)C(=O)N2CCC[C@H]2C(=O)N[C@@H](CCCNC(=N)N)C(=O)N[C@@H](CCCNC(=N)N)C(=O)N[C@@H](C)C(=O)N[C@@H](CCCNC(=N)N)C(=O)O)NC(=O)[C@H](CCCNC(=N)N)NC(=O)[C@H](Cc2c[nH]c3ccccc23)NC(=O)[C@H](Cc2c[nH]c3ccccc23)NC(=O)[C@@H]2CCCN2C(=O)[C@H](Cc2ccccc2)NC(=O)[C@H](CCSC)NC(=O)[C@H](CCCNC(=N)N)NC1=O (H-GDRYTCSPIRMFPWWRCDLGDPEGGGKAPRRAR-OH; disulfide 6-17) | – | 22.5 nM | Active | – | – | – | – | –
4 | CC(C)C[C@@H]1NC(=O)[C@@H]2CCCN2C(=O)[C@H](CO)NC(=O)[C@@H](NC(=O)[C@H](Cc2cnc[nH]2)NC(=O)[C@H](CO)NC(=O)[C@H](Cc2ccccc2)NC(=O)[C@H](CC(=O)O)NC(=O)CN)CSSC[C@@H](C(=O)N[C@H](C(=O)N[C@@H](Cc2ccc(O)cc2)C(=O)N2CCC[C@H]2C(=O)N[C@@H](CC(=O)O)C(=O)N2CCC[C@H]2C(=O)N[C@@H](CCC(=O)O)C(=O)NCC(=O)NCC(=O)NCC(=O)N[C@@H](CCCCN)C(=O)N2CCC[C@H]2C(=O)N[C@@H](C)C(=O)N[C@@H](CCCNC(=N)N)C(=O)N2CCC[C@H]2C(=O)N[C@@H](C)C(=O)N[C@@H](CCCNC(=N)N)C(=O)O)[C@@H](C)O)NC(=O)[C@H](CCCCN)NC(=O)[C@H](Cc2ccccc2)NC(=O)[C@H](Cc2c[nH]c3ccccc23)NC(=O)[C@@H]2CCCN2C(=O)[C@H](Cc2ccccc2)NC(=O)[C@H](Cc2ccc(O)cc2)NC(=O)[C@H](CCCNC(=N)N)NC1=O (H-GDFSHCSPLRYFPWFKCTYPDPEGGGKPARPAR-OH; disulfide 6-17) | – | 13.4 nM | Active | 450 nM | 2190 nM | 1200 nM | 70% | 2730 nM
5 | CC(C)C[C@@H]1NC(=O)[C@H](C)NC(=O)[C@H](CCCNC(=N)N)NC(=O)[C@@H](NC(=O)[C@@H]2CCCN2C(=O)[C@H](CO)NC(=O)[C@H](Cc2ccc(O)cc2)NC(=O)[C@H](CC(=O)O)NC(=O)CN)CSSC[C@@H](C(=O)N2CCC[C@H]2C(=O)N[C@@H](CO)C(=O)NCC(=O)N[C@@H](CC(=O)O)C(=O)N2CCC[C@H]2C(=O)N[C@@H](CCC(=O)O)C(=O)NCC(=O)NCC(=O)NCC(=O)N[C@@H](CCCNC(=N)N)C(=O)NCC(=O)N[C@@H](CCCNC(=N)N)C(=O)N[C@@H](CCCNC(=N)N)C(=O)N2CCC[C@H]2C(=O)N2CCC[C@H]2C(=O)N[C@@H](CCCNC(=N)N)C(=O)O)NC(=O)[C@H](CCCNC(=N)N)NC(=O)[C@H](Cc2c[nH]c3ccccc23)NC(=O)[C@H](Cc2c[nH]c3ccccc23)NC(=O)[C@@H]2CCCN2C(=O)[C@H](CO)NC(=O)[C@H](Cc2cnc[nH]2)NC(=O)[C@H](CCCNC(=N)N)NC1=O (H-GDYSPCRALRHSPWWRCPSGDPEGGGRGRRPPR-OH; disulfide 6-17) | – | 76.3 nM | Active | – | – | – | – | –
6 | CC[C@H](C)[C@H](NC(=O)[C@H](Cc1ccccc1)NC(=O)[C@H](CCCCN)NC(=O)[C@H](CC(=O)O)NC(=O)CN)C(=O)N[C@H]1CSSC[C@@H](C(=O)N[C@@H](CC(N)=O)C(=O)N[C@@H](Cc2c[nH]c3ccccc23)C(=O)N[C@@H](Cc2ccc(O)cc2)C(=O)N[C@@H](CC(=O)O)C(=O)N2CCC[C@H]2C(=O)N[C@@H](CCC(=O)O)C(=O)NCC(=O)NCC(=O)NCC(=O)N[C@@H](CCCCN)C(=O)NCC(=O)N[C@@H](CC(N)=O)C(=O)N[C@@H](CCCNC(=N)N)C(=O)N2CCC[C@H]2C(=O)N2CCC[C@H]2C(=O)N[C@@H](CCCNC(=N)N)C(=O)O)NC(=O)[C@H](Cc2ccccc2)NC(=O)[C@H](CCCCN)NC(=O)[C@H](Cc2c[nH]c3ccccc23)NC(=O)[C@@H]2CCCN2C(=O)[C@H](CCCCN)NC(=O)[C@H](CC(=O)O)NC(=O)[C@H](CCCNC(=N)N)NC(=O)[C@H]([C@@H](C)CC)NC(=O)[C@@H]2CCCN2C(=O)[C@H](CC(C)C)NC1=O (H-GDKFICLPIRDKPWKFCNWYDPEGGGKGNRPPR-OH; disulfide 6-17) | – | 96.7 nM | Active | – | – | – | – | –

From ChEMBL document CHEMBL5537120 (Eur J Med Chem, 2024)
